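Briefly, cells in 96-well plates were exposed to five compound concentrations for 48 h, and endpoints were estimated by linear interpolation. GI50 is the concentration that inhibits growth by half.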 Calls of active or inactive are those of the source. Rule as the data show it: active = GI50 up to about 1.1 µM and inactive = higher.
Assays:
Assay in all cases: growth of human tumour cells (NCI), 48 h
A498 = test system: A498
ACHN = test system: ACHN
COLO 205 = test system: COLO 205
HCT-116 = test system: HCT-116
HL-60 = test system: HL-60
K562 = test system: K562
LOX IMVI = test system: LOX IMVI
MCF7 = test system: MCF7
NCI-H226 = test system: NCI-H226
NCI-H23 = test system: NCI-H23
NCI-H460 = test system: NCI-H460
OVCAR-3 = test system: OVCAR-3
OVCAR-8 = test system: OVCAR-8
RPMI-8226 = test system: RPMI-8226
SF-295 = test system: SF-295
SK-MEL-28 = test system: SK-MEL-28
SK-OV-3 = test system: SK-OV-3
SW-620 = test system: SW-620
UACC-257 = test system: UACC-257
UACC-62 = test system: UACC-62

Measured: GI50

Cc1cccc2sc(-c3ccc(O)cc3)nc12
inactive: A498 3.15 µM | ACHN 16.5 µM | COLO 205 14.9 µM | HCT-116 15.6 µM | HL-60 15.9 µM | K562 33.3 µM | LOX IMVI 18.4 µM | MCF7 12.2 µM | NCI-H226 14.8 µM | NCI-H23 16.5 µM | NCI-H460 18.1 µM | OVCAR-3 16.1 µM | OVCAR-8 16.7 µM | RPMI-8226 20.9 µM | SF-295 14.6 µM | SK-MEL-28 18.5 µM | SK-OV-3 19.6 µM | SW-620 11.5 µM | UACC-257 18.8 µM | UACC-62 16 µM

Cc1ccc(NC(=O)CC(=O)n2nc(-c3ccccc3)c(/N=N/c3ccccc3C(=O)O)c2-c2ccccc2)cc1
inactive: ACHN 51.5 µM | COLO 205 > 100 µM | HCT-116 > 100 µM | K562 > 100 µM | LOX IMVI > 100 µM | NCI-H226 > 100 µM | OVCAR-3 > 100 µM | OVCAR-8 > 100 µM | RPMI-8226 > 100 µM | SF-295 > 100 µM | SK-MEL-28 > 100 µM | SK-OV-3 > 100 µM | SW-620 > 100 µM | UACC-62 > 100 µM

COc1c2ccoc2c(S(=O)(=O)Nc2ccc(Cl)cc2)c2oc(C)cc(=O)c12
inactive: A498 54.6 µM | COLO 205 > 100 µM | HCT-116 36 µM | HL-60 23.9 µM | K562 > 100 µM | LOX IMVI > 100 µM | MCF7 51.9 µM | NCI-H226 > 81.1 µM | NCI-H23 > 100 µM | NCI-H460 > 100 µM | OVCAR-3 > 100 µM | OVCAR-8 58.3 µM | RPMI-8226 > 100 µM | SF-295 > 89.7 µM | SK-MEL-28 > 100 µM | SK-OV-3 > 100 µM | SW-620 > 100 µM | UACC-257 > 100 µM | UACC-62 > 100 µM

CCN(CC)CCCNC(=O)c1ccccc1Nc1c(Cl)cccc1Cl
inactive: ACHN 10.2 µM | COLO 205 12.7 µM | HCT-116 11.5 µM | HL-60 3.18 µM | K562 6.76 µM | LOX IMVI 8.55 µM | NCI-H226 12.4 µM | NCI-H23 16.6 µM | OVCAR-8 15.7 µM | RPMI-8226 5.68 µM | SK-MEL-28 2.94 µM | SK-OV-3 14.2 µM | SW-620 13.6 µM | UACC-257 3.03 µM | UACC-62 12 µM

O=C1CN2Cc3cc(N4CCOCC4)ccc3N=C2N1
inactive: A498 91 µM | COLO 205 32.1 µM | HCT-116 21.3 µM | HL-60 72.6 µM | K562 2.91 µM | LOX IMVI > 100 µM | MCF7 60.8 µM | NCI-H226 44.6 µM | NCI-H23 20.3 µM | NCI-H460 41.5 µM | OVCAR-3 30.1 µM | OVCAR-8 72.9 µM | RPMI-8226 67 µM | SF-295 38.6 µM | SK-MEL-28 > 100 µM | SK-OV-3 25.8 µM | SW-620 47.1 µM | UACC-257 89.1 µM | UACC-62 26.2 µM

O=c1cnn(C/C=C/CP(=O)(O)O)c(=O)[nH]1
inactive: A498 > 100 µM | ACHN 97.1 µM | COLO 205 80 µM | HL-60 > 100 µM | K562 > 100 µM | LOX IMVI > 100 µM | MCF7 > 100 µM | NCI-H226 > 100 µM | NCI-H23 > 100 µM | NCI-H460 > 100 µM | OVCAR-3 > 100 µM | OVCAR-8 > 100 µM | RPMI-8226 > 100 µM | SK-MEL-28 > 100 µM | SW-620 > 100 µM | UACC-257 > 100 µM

O=C(Nc1ccc(I)cc1C(=O)NCCO)c1cccs1
inactive: ACHN > 100 µM | COLO 205 > 100 µM | HCT-116 > 100 µM | HL-60 > 100 µM | K562 > 100 µM | LOX IMVI > 100 µM | MCF7 > 100 µM | NCI-H226 > 100 µM | NCI-H23 > 100 µM | NCI-H460 85.3 µM | OVCAR-3 > 100 µM | OVCAR-8 > 100 µM | RPMI-8226 53.5 µM | SF-295 > 100 µM | SK-MEL-28 > 100 µM | SK-OV-3 > 100 µM | SW-620 > 100 µM | UACC-257 > 100 µM | UACC-62 > 100 µM

CCOC(=O)C(C)OC(=O)c1ccc(C)cc1 (stereo unspecified)
inactive: A498 > 100 µM | ACHN > 100 µM | COLO 205 > 100 µM | HCT-116 > 100 µM | HL-60 > 100 µM | K562 64.1 µM | LOX IMVI > 100 µM | NCI-H23 > 100 µM | NCI-H460 > 100 µM | OVCAR-3 > 100 µM | OVCAR-8 > 100 µM | SF-295 > 10 µM | SK-MEL-28 > 100 µM | SK-OV-3 > 100 µM | SW-620 > 100 µM | UACC-257 > 100 µM | UACC-62 > 100 µM

O=C(O)CCCCCCC[C@@H]1S[C@H]1CCCCCCO
inactive: A498 > 60.7 µM | COLO 205 > 100 µM | HCT-116 > 100 µM | HL-60 > 100 µM | K562 > 100 µM | LOX IMVI > 100 µM | MCF7 > 100 µM | NCI-H226 > 100 µM | NCI-H23 > 100 µM | NCI-H460 > 100 µM | OVCAR-3 > 100 µM | OVCAR-8 > 100 µM | RPMI-8226 > 100 µM | SF-295 > 100 µM | SK-MEL-28 > 100 µM | SK-OV-3 > 100 µM | SW-620 > 100 µM | UACC-257 > 100 µM | UACC-62 > 100 µM

Nc1nc(N)nc(-c2ccccc2NS(=O)(=O)c2ccc([N+](=O)[O-])cc2)n1
inactive: A498 > 100 µM | COLO 205 17.9 µM | HCT-116 67.5 µM | HL-60 19.3 µM | K562 > 10 µM | LOX IMVI 38.2 µM | MCF7 > 81.5 µM | NCI-H226 61.2 µM | NCI-H23 37.2 µM | NCI-H460 42.9 µM | OVCAR-3 54 µM | OVCAR-8 40.1 µM | RPMI-8226 45.9 µM | SF-295 99.1 µM | SK-MEL-28 > 100 µM | SK-OV-3 > 100 µM | SW-620 > 100 µM | UACC-257 43 µM | UACC-62 > 96.6 µM

CS(=O)(=O)c1ccc2nc(-c3ccc(O)cc3)sc2c1
inactive: A498 16.4 µM | ACHN 17.9 µM | COLO 205 22.2 µM | HCT-116 16.8 µM | HL-60 21.2 µM | K562 33.8 µM | LOX IMVI 22.1 µM | MCF7 17.5 µM | NCI-H226 18.5 µM | NCI-H23 19 µM | NCI-H460 19.4 µM | OVCAR-3 16.6 µM | OVCAR-8 20.5 µM | RPMI-8226 15.7 µM | SF-295 16.7 µM | SK-OV-3 17.5 µM | SW-620 20.7 µM | UACC-257 19.6 µM | UACC-62 17.9 µM

COc1ccc2c(=O)c(O)c(-c3ccc(OC)c(OC)c3)oc2c1
inactive: A498 4.97 µM | ACHN 3.54 µM | COLO 205 28.9 µM | HCT-116 4.97 µM | HL-60 1.66 µM | K562 4.53 µM | LOX IMVI 5.58 µM | MCF7 3.74 µM | NCI-H460 3.35 µM | OVCAR-3 2.84 µM | OVCAR-8 3.71 µM | RPMI-8226 4.09 µM | SF-295 10.1 µM | SK-MEL-28 8.53 µM | SK-OV-3 5.42 µM | SW-620 4.97 µM | UACC-257 6.76 µM | UACC-62 3.23 µM

CC(C)CC/N=c1/cc2n(-c3ccc(Cl)cc3)c3ccccc3nc-2cc1Nc1ccc(Cl)cc1
inactive: A498 15 µM | COLO 205 1.95 µM | HCT-116 3.77 µM | HL-60 2.51 µM | K562 2.96 µM | LOX IMVI 2.89 µM | MCF7 5.36 µM | NCI-H226 6.25 µM | NCI-H23 3.43 µM | NCI-H460 4.92 µM | OVCAR-3 2 µM | OVCAR-8 7.78 µM | RPMI-8226 2.22 µM | SF-295 11.9 µM | SK-MEL-28 15.6 µM | SK-OV-3 18.1 µM | SW-620 6.44 µM | UACC-257 7.6 µM | UACC-62 5.52 µM

O=C(O)CC/C(=N\Nc1nsc2ccccc12)c1ccccc1
inactive: ACHN 70.6 µM | COLO 205 > 100 µM | HCT-116 41.6 µM | HL-60 25.4 µM | K562 26.8 µM | LOX IMVI 29.5 µM | NCI-H23 27.2 µM | NCI-H460 33.6 µM | OVCAR-3 26.5 µM | OVCAR-8 66.7 µM | RPMI-8226 18.5 µM | SK-MEL-28 34.6 µM | SW-620 52.4 µM | UACC-257 57.3 µM | UACC-62 58.5 µM

COc1ccc2oc3c(ccc[n+]3C)c(=O)c2c1
inactive: A498 > 100 µM | ACHN > 100 µM | COLO 205 > 100 µM | HCT-116 > 100 µM | HL-60 > 100 µM | K562 > 100 µM | LOX IMVI > 100 µM | MCF7 > 100 µM | NCI-H226 > 100 µM | NCI-H23 > 100 µM | NCI-H460 > 100 µM | OVCAR-3 > 100 µM | OVCAR-8 > 100 µM | SF-295 > 100 µM | SK-MEL-28 > 100 µM | SK-OV-3 > 100 µM | SW-620 > 100 µM | UACC-62 > 100 µM
